Results on two compounds are retold here after US20100047314A1 (OsteoGeneX Inc., priority 2008, published 2010).

In test [1] the test system is male C57BL/6 mice. The experiment in a line: Serum osteocalcin bone formation marker by EIA Elisa in mice treated 30 days. The format is in vivo, mouse. To be noted: 100 mg/kg i.p. daily for 30 days, four month old male C57BL/6 mice. On the procedure: (§1) Four month old male C57BL/6 mice were treated daily with saline vehicle or the sclerostin inhibitor of calcium folinate at 10-100 mg/kg (via i.p) for 30 days. Study endpoints included a biochemical marker of bone formation; osteocalcin, measured by EIA Elisa, and measurement of trabecular bone volume by mico-CT analysis on the proximal tibia and Lumbar L5.

Test [2] concerns male C57BL/6 mice. As to the kind of experiment: Trabecular bone volume by micro-CT analysis on proximal tibia and lumbar L5. The format is in vivo, mouse. On the procedure:
as §1

A further test concerns Wnt pathway. As to the kind of experiment: Modulation of the Wnt pathway (FIG. 1). The settings on record: doses of 2.5 ng (low), 60 ng (medium), 125 ng (high) and 1250 ng (very high). The text has this: (§2) Compounds useful in the methods of the present invention can be identified via a variety of methods known to one of skill in the art. Several exemplary methods for identifying such antagonists are described herein, including cell-based and in vitro techniques (Journal of Bone and Mineral Research 2006, 21(11), 1738-1749). A general method of identifying SOST antagonists involves evaluating the effects of antagonist candidates on bone formation under controlled conditions. Preferably bone formation is determined using micro-CT techniques on live animals. Preferred animals include rodents, more preferred are primates. Femur, tibia and vertebrae bones are particularly useful subjects for such study.

The subject of a further test is mouse. The experiment in a line: Mouse bone formation assay of SOST antagonist candidates, examined by micro-CT. The format is in vivo. To be noted: versus control solution.
Source text: as §2
Briefly, the test animal is treated with a predetermined dose of a SOST antagonist candidate. […]
Once the dosing schedule has been completed, both test and control animals are examined to determine the quantity of bone formation present. […] Where necessary, levels of bone formation can be calculated by determining the volume of bone formation present in each animal. […]
For example, the mouse test animal is treated with a predetermined dose of a SOST antagonist candidate for a complete dosing schedule. […] Once the dosing schedule has been completed, both test and control animals are examined with sacrifice using micro-CT to determine the quantity of bone formation present.

As to `Nc1nc(=O)c2c([nH]1)NCC(CNc1ccc(C(=O)N[C@@H](CCC(=O)[O-])C(=O)[O-])cc1)N2C=O.[Ca+2]` (some centres unmarked) [calcium folinate], the “percent increase in serum osteocalcin bone formation marker over saline controls” value in the test on male C57BL/6 mice [1] was determined as 41%. Moreover, in the test with male C57BL/6 mice [2] (10 mg/kg i.p. daily for 30 days, proximal tibia, micro-CT), the “increase in bone volume for the tibia over baseline controls” value was “greater than 37%”. Further, the “increase in bone volume for lumbar L5 over controls” value in the test with male C57BL/6 mice [2] (100 mg/kg i.p. daily for 30 days, lumbar L5, micro-CT) was found to be 51%.

As to `Nc1nc(=O)c2c([nH]1)NCC(CNc1ccc(C(=O)NC(CCC(=O)O)C(=O)O)cc1)N2C=O` (centres unmarked) [folinic acid], in the test on Wnt pathway, the “modulation of the Wnt pathway to promote bone growth” value is “modulating the Wnt pathway to promote bone growth”. Further, the “quantity of bone formation (promotion of bone growth)” value in the test on mouse was “promoting bone growth”.
